TGI data for 15 compounds are collected here from PubChem BioAssay (NCI).

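Assay format: 96-well plates, 48-hour exposure. TGI is the concentration that stops growth completely.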

Assay in all cases: inhibition of tumour cell growth, NCI panel, 48 h
Assay [1] has as its system ACHN renal.
For assay [2], the system named is HCT-116 colon.
Assay [3] has as its system HL-60(TB) leukemia.
Assay [4] has as its system LOX IMVI melanoma.
Assay [5] relates to MALME-3M melanoma.
The subject of assay [6] is MCF7 breast.
In assay [7] the test system is MDA-MB-231 breast.
Assay [8] has as its system MDA-N.
Assay [9] concerns NCI/ADR-RES ovarian.
In assay [10] the test system is OVCAR-8 ovarian.
Assay [11] deals with PC-3 prostate.
Assay [12] has as its system SF-268 CNS.
Assay [13] concerns SK-MEL-28 melanoma.
The subject of assay [14] is SK-MEL-5 melanoma.
Assay [15] has as its system SK-OV-3 ovarian.
Assay [16] concerns SW-620 colon.
Assay [17] has as its system T-47D breast.
The subject of assay [18] is UACC-257 melanoma.
The subject of assay [19] is UO-31 renal.

Take `O=Cc1ccc2c(c1)CC1(C2)Cc2ccc(C=O)cc2C1`: the TGI is 62.1 µM in assay [1]; 19.6 µM in assay [2]; 5.72 µM in [3]; 21.8 µM in assay [4]; 46.1 µM in assay [5]; > 70 µM in [6]. Also, the TGI was 34.1 µM in assay [7]; 5.99 µM in assay [8]; 32.5 µM in assay [9]; 31.3 µM in [10]; 43.3 µM in [11]; 44.6 µM in assay [12]. For the same compound, the TGI in assay [13] was 59.1 µM; in assay [14], 16.7 µM; in [15] it was > 100 µM; in assay [16], 39.2 µM; in assay [17] it was 71.8 µM; in assay [18], 40.5 µM. Moreover, the TGI in [19] was > 50.6 µM.
For the compound `CC(C)C(Cl)CC/C(CBr)=C(\Cl)CCl` (stereo not given), the TGI turned out to be 29.6 µM in assay [1]; 8.35 µM in [2]; 2.24 µM in [3]; 1.2 µM in assay [4]; 19.6 µM in assay [5]; 1.29 µM in assay [6]. For the same compound, the TGI is 8.36 µM in assay [7]; 5.63 µM in assay [8]; > 79.1 µM in [9]; 4.65 µM in assay [10]; 23.9 µM in assay [11]; 32.1 µM in assay [12]. In addition, the TGI in [13] was determined as 12 µM; in [14] it was 5.95 µM; in assay [15], 17.8 µM; in assay [16], 4.26 µM; in assay [17], 3.29 µM; in [18], 11 µM. The compound further showed a TGI in assay [19] of 30.8 µM.
Regarding `Nc1c(Cl)c([N+](=O)[O-])cc2c1OCCCCO2`, the TGI in assay [1], in [2], in assay [3], in [4], in assay [5] and in [6] was > 100 µM throughout. The TGI in [7], in [8], in [9], in assay [10], in assay [11] and in assay [12] was > 100 µM in each case. Also, the TGI is > 100 µM in assay [13]; > 100 µM in assay [14]; 55.6 µM in [15]; > 100 µM in assay [16]; > 100 µM in assay [17]; > 100 µM in assay [18]. Besides, the TGI in assay [19] was > 100 µM.
For `O=C1CCSc2c(cnc3ccccc23)N1`, the TGI in [1], in assay [2], in [3], in assay [4], in [5] and in assay [6] was > 100 µM in each case. The TGI in assay [7], in assay [8], in assay [9], in [10], in assay [11] and in [12] was > 100 µM each time. The TGI in [13], in [14], in assay [15], in [16], in [17] and in assay [18] was > 100 µM in each case. Further, the TGI in [19] was > 100 µM.
Regarding `C#C[C@]1(O)CC[C@H]2[C@@H]3CCC4=C/C(=N\OCCN5CCCC5)CC[C@]4(C)[C@H]3CC[C@@]21C`, the TGI came out at 47.2 µM in [1]; 28.7 µM in assay [2]; 8.57 µM in assay [3]; 33 µM in assay [4]; 23.4 µM in assay [5]; 21.5 µM in assay [6]. Moreover, the TGI in assay [7] worked out at 36.2 µM; in assay [8], 11.3 µM; in assay [9], 31.5 µM; in assay [10], 40.7 µM; in assay [11] it was 32.6 µM; in [12], 30.1 µM. The TGI in [13] is 44.6 µM; in [14], 15.4 µM; in assay [15] it was 54.6 µM; in assay [16], > 49.5 µM; in assay [17], 60.4 µM; in assay [18], 22.9 µM. For the same compound, in assay [19], the TGI came to 32.9 µM.
Regarding `CCn1c(SCC(=O)NNC(=S)Nc2ccc(F)cc2)nc2ccccc2c1=O`, the TGI in assay [1], in [2], in assay [3], in assay [4], in assay [5] and in assay [6] was > 100 µM each time. The TGI in assay [7], in [8], in assay [9], in [10], in assay [11] and in assay [12] was > 100 µM in each case. Besides, the TGI in [13], in assay [14], in assay [15], in assay [16], in assay [17] and in [18] was > 100 µM each time. For the same compound, in assay [19], the TGI is > 100 µM.
Consider `CCCCCNC1=CC(=O)c2ccccc2C1=O`, for which the TGI was > 100 µM in assay [1]; > 61.7 µM in assay [2]; > 62.6 µM in assay [3]; > 57 µM in [4]; > 95.3 µM in assay [5]; > 100 µM in [6]. Further, the TGI in assay [7] is 44.3 µM; in [8], > 100 µM; in [9] it was > 100 µM; in assay [10] it was 51.8 µM; in assay [11] it was > 100 µM; in assay [12] it was > 77.1 µM. The TGI was > 100 µM in assay [13]; 77.8 µM in assay [14]; > 84.7 µM in assay [15]; > 100 µM in assay [16]; > 82.6 µM in assay [17]; > 100 µM in assay [18]. Moreover, the TGI in [19] was > 88.6 µM.
As to `COc1ccc(CCN(C)C(=O)CC(C#N)(c2ccccc2)c2ccc(OC)c(OC)c2)cc1OC` (stereo not given), the TGI in assay [1], in [2], in assay [3], in [4], in assay [5] and in assay [6] was > 100 µM each time. The TGI in assay [7], in assay [8], in [9], in assay [10], in [11] and in [12] was > 100 µM in each case. For the same compound, the TGI in [13], in [14], in [15], in assay [16], in assay [17] and in [18] was > 100 µM throughout. Also, the TGI in assay [19] is > 100 µM.
As to `CN1CCC/C1=C1\C(=O)c2cccn2C1=O`, the TGI in [1], in assay [2], in assay [3], in assay [4], in assay [5] and in [6] was > 100 µM in each case. For the same compound, the TGI in assay [7], in assay [8], in assay [9], in assay [10], in [11] and in [12] was > 100 µM throughout. For the same compound, the TGI in [13], in assay [14], in assay [15], in [16], in assay [17] and in assay [18] was > 100 µM each time. In addition, in assay [19], the TGI is > 100 µM.
With `C/C(=C/CNc1ncnc2c1ncn2CCC#N)CO`, the TGI in [1], in [2], in [3], in assay [4], in assay [5] and in [6] was > 100 µM each time. For the same compound, the TGI in assay [7], in [8], in assay [9], in assay [10], in assay [11] and in [12] was > 100 µM in each case. The TGI in assay [13], in assay [14], in assay [15], in [16], in [17] and in [18] was > 100 µM each time. Also, the TGI in assay [19] was > 100 µM.
Consider `CNC(=S)NNC1=NCCCCN1`, for which the TGI in assay [1], in assay [2], in [3], in [4], in [5] and in assay [6] was > 100 µM throughout. The TGI in [7], in [8], in assay [9], in assay [10], in assay [11] and in assay [12] was > 100 µM in each case. The TGI in assay [13], in assay [14], in assay [15], in [16], in assay [17] and in [18] was > 100 µM each time. In assay [19], the TGI was > 100 µM.
As to `COC(=O)[C@]12CSC[C@H]1C[C@H](c1ccc(N(C)C)cc1)N2`, the TGI in assay [1], in assay [2], in assay [3], in assay [4], in [5] and in [6] was > 100 µM throughout. For the same compound, the TGI in assay [7], in assay [8], in [9], in assay [10], in [11] and in [12] was > 100 µM in each case. The TGI in assay [13], in [14], in [15], in [16], in [17] and in assay [18] was > 100 µM throughout. The TGI in assay [19] is > 100 µM.
On to `COC(=O)/C=C(\S/C(=C(/c1ccc(OC)cc1)n1cc(C(=O)OC)c(C(=O)OC)n1)c1ccc(OC)cc1)C(=O)OC`, for which the TGI in [1] was 18.5 µM; in assay [2], 31.3 µM; in [3], 7.64 µM; in assay [4] it was 25.4 µM; in assay [5] it was 37.1 µM; in assay [6], > 100 µM. The TGI in assay [7] was > 100 µM; in assay [8], > 100 µM; in [9], > 100 µM; in assay [10], 4.8 µM; in assay [11], > 100 µM; in assay [12], 78.8 µM. Further, the TGI in assay [13] is > 100 µM; in assay [14], > 100 µM; in assay [15], > 100 µM; in assay [16], > 100 µM; in assay [17], 10.2 µM; in [18], 25.3 µM. In assay [19], the TGI is 16 µM.
`COc1ccc(C(=O)N2CCN(c3ccc4[nH]c(=O)oc4c3)CC2)cc1`: the TGI in assay [1], in assay [2], in assay [3], in assay [4], in [5] and in assay [6] was > 100 µM in each case. Also, the TGI in [7], in assay [8], in assay [9], in assay [10], in assay [11] and in [12] was > 100 µM each time. For the same compound, the TGI in [13], in [14], in assay [15], in [16], in assay [17] and in assay [18] was > 100 µM throughout. In [19], the TGI is > 100 µM.
With `CC1=CCC[C@]2(C)C1=CC(=O)O[C@H]2c1ccoc1`, the TGI in [1], in [2], in assay [3], in assay [4], in assay [5] and in assay [6] was > 100 µM in each case. In addition, the TGI in assay [7], in [8], in assay [9], in assay [10], in assay [11] and in [12] was > 100 µM each time. In addition, the TGI in assay [13], in assay [14], in [15], in assay [16], in assay [17] and in assay [18] was > 100 µM in each case. Also, the TGI in [19] is > 100 µM.
